Reference: ChEMBL document CHEMBL4419169, “Novel Ferroportin Inhibitors” (2018)
Calls of active or inactive are those of the source. No cut-off for these calls is given here.

Experiments:
[1] = molecular target: T1, Ferroportin (Mus musculus) (UniProt Q9JHI9); assay: Inhibition of ferroportin in mouse J774 cells assessed as induce ferroportin ubiquitination and degradation at 0.5 uM incubated for 10 mins by immunoprecipitation assay; format: cell-based
T1 sequence (whole entry): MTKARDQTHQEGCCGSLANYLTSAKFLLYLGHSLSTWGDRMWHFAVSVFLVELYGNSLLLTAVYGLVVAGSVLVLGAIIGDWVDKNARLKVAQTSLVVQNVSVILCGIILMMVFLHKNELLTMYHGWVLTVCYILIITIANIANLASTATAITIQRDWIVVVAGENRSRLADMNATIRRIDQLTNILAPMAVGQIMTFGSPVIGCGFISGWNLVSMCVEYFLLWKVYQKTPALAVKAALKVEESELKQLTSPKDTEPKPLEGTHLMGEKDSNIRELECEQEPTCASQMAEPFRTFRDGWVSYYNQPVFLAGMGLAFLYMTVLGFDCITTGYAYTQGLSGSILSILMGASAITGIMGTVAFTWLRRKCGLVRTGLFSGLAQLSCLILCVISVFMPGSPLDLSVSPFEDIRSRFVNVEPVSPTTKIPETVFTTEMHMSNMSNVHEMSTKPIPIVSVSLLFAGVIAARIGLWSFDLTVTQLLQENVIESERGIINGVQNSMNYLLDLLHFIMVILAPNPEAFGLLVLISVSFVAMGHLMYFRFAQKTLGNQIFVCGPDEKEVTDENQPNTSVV

[2] = molecular target: T1, Ferroportin (Mus musculus); assay: Inhibition of ferroportin in mouse J774 cells assessed as induce ferroportin ubiquitination and degradation at 0.5 uM incubated for 120 mins by immunoprecipitation assay; format: cell-based
[3] = molecular target: T1, Ferroportin (Mus musculus); assay: Inhibition of ferroportin in mouse J774 cells assessed as induce ferroportin ubiquitination and degradation at 0.3 uM incubated for 120 mins by immunoprecipitation assay; format: cell-based
[4] = molecular target: T1, Ferroportin (Mus musculus); assay: Inhibition of ferroportin in mouse J774 cells assessed as induce ferroportin ubiquitination and degradation at 0.3 uM incubated for 10 mins by immunoprecipitation assay; format: cell-based
[5] = molecular target: T1, Ferroportin (Mus musculus); assay: Inhibition of ferroportin in mouse J774 cells assessed as induce ferroportin ubiquitination and degradation at 0.04 uM incubated for 120 mins by immunoprecipitation assay; format: cell-based
[6] = molecular target: T1, Ferroportin (Mus musculus); assay: Inhibition of ferroportin in mouse J774 cells assessed as induce ferroportin ubiquitination and degradation at 0.04 uM incubated for 10 mins by immunoprecipitation assay; format: cell-based
[7] = molecular target: T1, Ferroportin (Mus musculus); assay: Inhibition of ferroportin in mouse J774 cells assessed as induce ferroportin ubiquitination and degradation at 0.8 uM incubated for 120 mins by immunoprecipitation assay; format: cell-based
[8] = molecular target: T1, Ferroportin (Mus musculus); assay: Inhibition of ferroportin in mouse J774 cells assessed as induce ferroportin ubiquitination and degradation at 0.8 uM incubated for 10 mins by immunoprecipitation assay; format: cell-based
[9] = system: Mus musculus; assay: Prevention of hyperferremia in iron overloaded beta2-microglobulin deficient mouse assessed as reduction in serum iron level at 50 mg/kg, po measured after 3 hrs relative to control; format: functional, organism-based
[10] = system: Mus musculus; assay: Induction of hypoferremia in orally dosed wild type C57BL/6 mouse assessed as decrease in serum iron levels measured after 3 hrs post dose; format: functional, organism-based

O=C(NCc1ncccc1F)c1coc(CCNCCc2nc3c(Cl)cccc3[nH]2)n1
inhibition [1]: Active | inhibition [2]: Active

O=C(NCc1ncccc1F)c1cnn(CCNCCc2nc3ccccc3[nH]2)c1
inhibition [3]: Active | inhibition [4]: Active

O=C(NCc1ncccc1F)c1csc(CCN(CCc2nc3ccccc3[nH]2)CCc2nc3ccccc3[nH]2)n1
inhibition [5]: Active | inhibition [6]: Active

O=C(NCc1ncccc1F)c1coc(CCNCc2nc3ccccc3[nH]2)n1
inhibition [7]: Active | inhibition [8]: Active

O=C(NCc1ncccc1F)c1csc(CCNCCc2nc3ccccc3[nH]2)n1
Activity [9]: Active | inhibition [3]: Active | Activity [10]: Dose-dependent effect | inhibition [4]: Active
